Patent publication US20040175419A1, “Control of compactibility through cystallization” (priority 2001, published 2004)

Experiments:
Format in all cases: physicochemical
[1] = Compactability (slope of tensile strength versus compression pressure) of 80% API powder blend compressed on an Instron; details: for compactability of the powder blend: 80% bulk drug and 20% excipient
Method: In order to evaluate the compressibility and compactability of all API lots generated by modifying the crystallization process, a blend of 80% API, 19.5% microcrystalline cellulose and 0.5% magnesium stearate was prepared by mixing in a tumble mixer for 5 minutes. Each mixture was then compressed on an Instron (Universal Stress-Strain Analyzer) using a 0.5 inch diameter tooling (upper and lower punches and die) at a speed of 100 mm/min at compression forces of 5, 10, 15, 20 and 25 kN each for a replicate of three tablets. The tablet dimensions were measured using a digital Vernier calliper and the strength of the tablets were determined using an Erweka hardness tester. The volume of the tablet can be calculated from the tablet dimensions normalized for the true density of the mixture being compressed. The compressibility curves are generated by plotting the solid fraction of the tablet generated at each compression pressure versus the respective compression pressure. The area under such a curve represents the extent of volume reduction. The force required to break the tablets is normalized for the area of the tablet to obtain the tensile strength value. Slopes for profiles of tensile strength versus the compression pressure represent the compactability of the material while the area under the curve of tensile strength versus the solid fraction of the tablets represents the extent of compaction or toughness of the material.

[2] = Crystallinity by X-ray diffraction after milling; details: milled API, FIG. 4
Excerpt: This amorphization through the milling process can lead to chemical instability of the API. […] This clearly illustrated that modification of the crystallization process parameters to achieve higher compactability of the API is the preferred choice.

[3] = Bonding Index calculated from tensile strength and dynamic indentation hardness
Excerpt: The Bonding Index of the material can be calculated from the tensile strength measurements as well as the dynamic indentation hardness measurements described above using the equation shown below: [formula]
The highest bonding index value observed today is that of microcrystalline cellulose Avicel PH 101 which is 0.04. The bonding index of Lot # 2 was 0.034±0.001.

[4] = Agglomerate size of API crystallized at different supersaturation
Method: The crystallization parameters and seeding conditions (using “as is” API at 0.1-0.2%) described in the procedure outlined in Table 1 was adopted as a starting point for modifications. By changing the ratio of solvent/antisolvent (isopropyl acetate/heptane) in step 3 (Table 1) from 1.67 to 1.0 and varying the pot temperature from 80 to 50° C., the degree of supersaturation was increased by a factor of 5 (from about 3.5 to about 17.5). The materials made from these conditions are generally agglomerates formed by a cluster of primary crystals plus the conjunction material which glue these crystals together.
At low supersaturation, large agglomerates (500-1000 μm) with large primary crystals (also large) were obtained. At high supersaturation the procedure generates small agglomerates (200-300 μm) with smaller primary crystals. This is consistent with other crystallization systems, in which nucleation is rate limiting, where high supersaturation favors the formation of agglomerates and mild supersaturation results in elementary crystals. Generally, these agglomerated materials compact quite poorly and create difficulties for large scale, high speed tablet manufacture. […] The manipulation of supersaturation was consequently not pursued further. […]

[5] = Solid-state stability of crystal forms; details: compared with forms 5, 6, 7
Excerpt: Due to the unique structure of the API material at least four different groups of crystal structures were observed (forms 4, 5, 6, 7) and analyzed by single crystal x-ray. […] Orthorhombic Form 6 consisted of a group of isostructural (1:1) solvates which accommodates solvents such as EtOAc, acetone and MEK. […] An exhaustive study of API crystallization on the feasibility of various solvents, control of polymorphs, and robustness of process concluded that the selected form could be consistently produced and kept stable in iPrOAc (or BuOAc)/Heptane (or Cyclohexane), following which a reproducible crystallization procedure in the iPrOAc/heptane solvent system was developed and implemented. This procedure, associated with the aminolysis of penultimate compound (Chemical Abstracts Systematic Name, (αS)-α-(Benzoylthio)-3,4,4-trimethyl-2,5-dioxo-1-imidazolidinebutanoyl-L-leucyl-N,3-dimethyl-L-valinamide), is successful in purging undesirable side products/impurities such as α,α′-Dithiobis[N-[1-[[[2,2-dimethyl-1-[(methylamino)carbonyl]propyl]amino]-carbonyl]-3-methylbutyl]-3,4,4-trimethyl-2,5-dioxo-1-imidazolidinebutanamide] which is the S,S′-dimer of the API. The crystallization procedure is further described in Table 1.

[6] = Dynamic indentation hardness by pendulum impact apparatus; details: square compacts without a hole
Method: The square compacts (without a hole) are then subjected to a dynamic indentation hardness evaluation using a pendulum impact apparatus as described in Tablet Indices^11. The velocity at which the pendulum sphere impacts the compact as well as the speed with which the pendulum sphere is rebound from the compact is recorded. The indentation made on the compact surface by the procedure described above is measured with a surface analyzer that facilitates computation of the chordal radius of the indentation. These measurements are then used to calculate the dynamic indentation hardness of the material using the equation described below: [formula]
where, m and r are the mass and radius of the indenting sphere, respectively and hi and hr are the inbound and rebound heights, respectively and a is the chordal radius of the indentation created on the compact surface. G is acceleration due to gravity. […] This value is much lower than that of the standard compressible filler, Avicel PH 102 that has a hardness of 352 MN/m^2. […] The hardness value for Lot # 2 was 52.9 MN/M^2±8.2 MN/M^2. The increase in hardness of the material from the optimized crystallization process is not significant enough to change the conclusion drawn earlier about its ductility.

[7] = Brittle fracture index (BFI) from compacts with and without a 1 mm hole; details: square compacts; scale 0 to 1
Method: Similarly, the tensile strength is determined for square compacts that are prepared with a magnified flaw using the tri-axial decompression press and a upper punch having a 1 mm diameter pin spring loaded on its surface. This pin facilitates the introduction of a 1 mm diameter hole in the center of the compact. The tensile strength values of the compacts with and without a hole are used to evaluate the brittle fracture index (BFI) of the material as shown below: [formula]
Where, σT is the tensile strength of the square compacts without a hole in the center and σTo is the tensile strength of the square compacts with a 1 mm hole in the center that acts as a stress concentrator.

[8] = Tensile strength of square compacts from tri-axial decompression press (Hiestand tablet indices); details: square compacts prepared at a solid fraction of 0.85
Method: In order to characterize the deformation mechanism of the API, Hiestand's tablet indices (see, E. N. Hiestand and D. P. Smith, Powder Technology, 38, pp 145-159 (1984) hereby incorporated by reference) were evaluated. The identical procedure as developed by E. N. Hiestand, at the Pharmacia and Upjohn company was adapted for evaluating the deformation properties of the API. In brief, square shaped compacts (1.97 cm^2) were prepared using a tri-axial decompression Loomis Engineering press. This tri-axial press facilitates compression pressure relief in three dimensions as opposed to […] as in the uni-axial press. […] Through tri-axial decompression it is possible to produce virtually flawless compacts. The API was compressed with the procedure describe above to produce compacts having a relative density or solid fraction of 0.85. The compacts were then subjected to tensile strength testing on an Instron stress-strain analyzer at a cross head speed of about 0.8 mm/min. This speed allowed the time constant between the peak stress and 1/e times the peak stress to be a constant of 10 seconds. […]
where, σ is the tensile strength calculated and F is the force required to initiate crack propagation in the compact and l and b are the length and breadth of the compact, respectively. […]

In the case of CNC(=O)[C@@H](NC(=O)[C@H](CC(C)C)NC(=O)[C@@H](S)CCN1C(=O)N(C)C(C)(C)C1=O)C(C)(C)C [API, N-[(2S)-2-Mercapto-1-oxo-4-(3,4,4-trimethyl-2,5-dioxo-1-imidazolidinyl)butyl]-L-leucyl-N,3-dimethyl-L-valinamide], the compactability ([1]; 1% ground seeds, with sonication) is reported as 12.3 kPa/MPa, the product compactability ([1]; 50-g sample, 1% AirJet-milled seeds) is reported as 4.2 kPa/MPa and the product compactability ([1]; 50-g sample, 1% ball-milled seeds) is reported as 5.9 Kpa/MPa. For the same compound, the product compactability ([1]; 50-g sample, 1% ground seeds, without sonication) was 10.5 kPa/MPa, the product compactability ([1]; 50-g sample, 1% seeds crystallized from a ground seeded batch) was 5.3 kPa/MPa and the compactability ([1]; 50-g sample, 1.5% ball-milled seeds) was 7.0 kPa/MPa. For the same compound, the compactability ([1]; 50-g sample, 4% ground seeds) was 14.4 kPa/MPa, the “improvement in compactability over material generated by the current process” value ([1]; 50-g sample, 4% ground seeds) was ~10 fold and the compactability ([1]; 50-g sample, 5% ground seeds) was 12.6 kPa/MPa. For the same compound, the powder blend compactability ([1]; 50 g scale, crystallization seeded with 5% large agglomerates) was 3.65 kPa/MPa, the “compactability of the powder blend” value ([1]; 100 Kg scale, "as is" material at 1.5% seed loading) was 2.8-3.4 kPa/Mpa and the “compactability of the powder blend” value ([1]; "as is" seed, 0.1% seed loading (representative)) was 1.4-1.7 kPa/Mpa. For the same compound, the “change of compactability after milling” value ([1]; milled API, FIG. 3) was “gain in compactability”, the “change of crystallinity after milling (X-ray diffraction patterns)” value [2] was “reduction in the crystallinity” and the bonding index [3] was 0.025±0.001. The agglomerate size ([4]; high supersaturation) was 200-300 μm and the agglomerate size ([4]; low supersaturation) was 500-1000 μm.

For CNC(=O)[C@@H](NC(=O)[C@H](CC(C)C)NC(=O)[C@@H](S)CCN1C(=O)N(C)C(C)(C)C1=O)C(C)(C)C [Form 4, N-[(2S)-2-Mercapto-1-oxo-4-(3,4,4-trimethyl-2,5-dioxo-1-imidazolidinyl)butyl]-L-leucyl-N,3-dimethyl-L-valinamide], the “stability of crystal structure in the solid state” value [5] was “did not transform/decompose to other crystalline structures in the solid state”.

In the case of CNC(=O)[C@@H](NC(=O)[C@H](CC(C)C)NC(=O)[C@@H](S)CCN1C(=O)N(C)C(C)(C)C1=O)C(C)(C)C [Lot# 1, N-[(2S)-2-Mercapto-1-oxo-4-(3,4,4-trimethyl-2,5-dioxo-1-imidazolidinyl)butyl]-L-leucyl-N,3-dimethyl-L-valinamide], the dynamic indentation hardness [6] is reported as 35.8 MN/m^2, the “brittle fracture index (BFI)” value [7] is reported as 0.14±0.03 and the tensile strength ([8]; listed as MMPI Lot# 1) is reported as 90.46 N/cm^2.

With CNC(=O)[C@@H](NC(=O)[C@H](CC(C)C)NC(=O)[C@@H](S)CCN1C(=O)N(C)C(C)(C)C1=O)C(C)(C)C [Lot# 2, N-[(2S)-2-Mercapto-1-oxo-4-(3,4,4-trimethyl-2,5-dioxo-1-imidazolidinyl)butyl]-L-leucyl-N,3-dimethyl-L-valinamide] the dynamic indentation hardness [6] was 52.9 MN/m^2, the “brittle fracture index (BFI)” value [7] was 0.20±0.02 and the bonding index [3] was 0.034±0.001. For the same compound, the tensile strength [8] was 181.90 N/cm^2.
